Source: US10364212B2 (F.I.S.—FABBRICA ITALIANA SINTETICI S.P.A., priority 2016, dated 2019)
Where “and” joins values, the source holds several entries; their conditions need not be identical. Equal entries are not always repeated. Entries after “also recorded” stand apart in the source; their conditions may differ.

How the values were obtained:
Type in all cases: physicochemical
[1] = Kinetic solubility study in water, HPLC area of Enclomiphene peak;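 for HPLC a/a: suspension in 24 mL Water and the filtered mother liquor analysed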;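 for average HPLC a/a: suspension in 24 mL Water and the filtered mother liquor analysed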
Method: (§1) The filtered solid was analyzed by XRPD.
These HPLC conditions were used to perform solubility analysis.

[2] = Kinetic solubility study at pH 4.5 (acetic acid/sodium acetate buffer), HPLC area
Method: as §1
Solubility at a slightly acid medium was determined at pH 4.5 buffer used was a mixture acetic acid/sodium acetate prepared according to USP specifications. […]

[3] = Hygroscopicity by DVS (Dynamic Vapour Sorption); settings: for water uptake / moisture sorption: at 95% RH (0-95% RH); for hygroscopicity, comparison of batches 722 and 723: between 0 and 65% RH
Method: This is a gravimetric technique that measures how much water is absorbed or desorbed by a sample at different relative humidity (RH). At each RH, the sample mass must be allowed to reach gravimetric equilibrium (or surpassed time limit) before progressing to the next humidity level. Sorption and desorption isotherms will be performed at 25° C. over a range of 0-95% RH. The type of sorption isotherm is determined by the pore size and surface character of the material.

| SMILES | average HPLC a/a ([1]; 0 min) | HPLC a/a ([1]; 0 min, replicate 1) | HPLC a/a ([1]; 0 min, replicate 2) | HPLC a/a ([1]; 0 min, replicate 3) | average HPLC a/a ([1]; 15 min) | HPLC a/a ([1]; 15 min, replicate 1) | HPLC a/a ([1]; 15 min, replicate 2) | HPLC a/a ([1]; 15 min, replicate 3) | average HPLC a/a ([1]; 45 min) | HPLC a/a ([1]; 45 min, replicate 1) | HPLC a/a ([1]; 45 min, replicate 2) | HPLC a/a ([1]; 45 min, replicate 3) | average HPLC a/a ([1]; 90 min) | HPLC a/a ([1]; 90 min, replicate 1) | HPLC a/a ([1]; 90 min, replicate 2) | HPLC a/a ([1]; 90 min, replicate 3) | average HPLC a/a ([1]; 180 min) | HPLC a/a ([1]; 180 min, replicate 1) | HPLC a/a ([1]; 180 min, replicate 2) | HPLC a/a ([1]; 180 min, replicate 3) | other results |
| --- | --- | --- | --- | --- | --- | --- | --- | --- | --- | --- | --- | --- | --- | --- | --- | --- | --- | --- | --- | --- | --- |
| CCN(CC)CCOc1ccc(/C(=C(/Cl)c2ccccc2)c2ccccc2)cc1.O=C(O)CC(O)(CC(=O)O)C(=O)O [Enclomiphene citrate having non-needle crystals] [Ethanamine, 2-[4-[(1E)-2-chloro-1,2-diphenylethenyl]phenoxy]-N,N-diethyl-, 2-hydroxy-1,2,3-propanetricarboxylate (1:1), reference compound] | 0 a/a | 0 a/a | 0 a/a | 0 a/a | 2858 a/a | 1819 a/a | 3483 a/a | 3273 a/a | 3226 a/a | 3083 a/a | 3370 a/a | 3225 a/a | 2772 a/a | 3229 a/a | 2099 a/a | 2988 a/a | 3265 a/a | 2991 a/a | 3597 a/a | 3208 a/a | Average a/a ([2]; pH 4.5, 0 min): 0 a/a; HPLC a/a ([2]; pH 4.5, 0 min, replicate 1): 0 a/a; HPLC a/a ([2]; pH 4.5, 0 min, replicate 2): 0 a/a; Average a/a ([2]; pH 4.5, 15 min): 1185 a/a; HPLC a/a ([2]; pH 4.5, 15 min, replicate 1): 1294 a/a; HPLC a/a ([2]; pH 4.5, 15 min, replicate 2): 1077 a/a; Average a/a ([2]; pH 4.5, 45 min): 924 a/a; HPLC a/a ([2]; pH 4.5, 45 min, replicate 1): 907 a/a; HPLC a/a ([2]; pH 4.5, 45 min, replicate 2): 941 a/a; Average a/a ([2]; pH 4.5, 90 min): 1095 a/a; HPLC a/a ([2]; pH 4.5, 90 min, replicate 1): 1279 a/a; HPLC a/a ([2]; pH 4.5, 90 min, replicate 2): 912 a/a; Average a/a ([2]; pH 4.5, 180 min): 1052 a/a; HPLC a/a ([2]; pH 4.5, 180 min, replicate 1): 1008 a/a; HPLC a/a ([2]; pH 4.5, 180 min, replicate 2): 1096 a/a; water uptake / moisture sorption ([3]; DVS, 25° C., listed as batch 722): 6 % weight; moisture sorption ([3]; DVS, 25° C., between 0% and 65% RH): 2 % weight; hygroscopicity, comparison of batches 722 and 723 ([3]; DVS): identical; water absorption at high humidity ([3]; humidity higher than 65% RH (FIG. 9)): absorbs relevant amounts of water |
| CCN(CC)CCOc1ccc(/C(=C(/Cl)c2ccccc2)c2ccccc2)cc1.O=C(O)CC(O)(CC(=O)O)C(=O)O [Enclomiphene citrate having needle crystals] [Ethanamine, 2-[4-[(1E)-2-chloro-1,2-diphenylethenyl]phenoxy]-N,N-diethyl-, 2-hydroxy-1,2,3-propanetricarboxylate (1:1)] | 0 a/a | 0 a/a | 0 a/a | 0 a/a | 5152 a/a | 4099 a/a | 6104 a/a | 3273 a/a | 4962 a/a | 5206 a/a | 5457 a/a | 3225 a/a | 5334 a/a | 5085 a/a | 5426 a/a | 2988 a/a | 4126 a/a | 4120 a/a | 5327 a/a | 3208 a/a | solubility in water compared with Enclomiphene citrate having non-needle shaped crystal habit ([1]; listed as Enclomiphene citrate having needle shaped crystal habit): almost double; also recorded: almost two times; Average a/a ([2]; pH 4.5, 0 min): 0 a/a; HPLC a/a ([2]; pH 4.5, 0 min, replicate 1): 0 a/a; HPLC a/a ([2]; pH 4.5, 0 min, replicate 2): 0 a/a; Average a/a ([2]; pH 4.5, 15 min): 4135 a/a; HPLC a/a ([2]; pH 4.5, 15 min, replicate 1): 3941 a/a; HPLC a/a ([2]; pH 4.5, 15 min, replicate 2): 4330 a/a; Average a/a ([2]; pH 4.5, 45 min): 4024 a/a; HPLC a/a ([2]; pH 4.5, 45 min, replicate 1): 3978 a/a; HPLC a/a ([2]; pH 4.5, 45 min, replicate 2): 4070 a/a; Average a/a ([2]; pH 4.5, 90 min): 5109 a/a; HPLC a/a ([2]; pH 4.5, 90 min, replicate 1): 4889 a/a; HPLC a/a ([2]; pH 4.5, 90 min, replicate 2): 5329 a/a; Average a/a ([2]; pH 4.5, 180 min): 5079 a/a; HPLC a/a ([2]; pH 4.5, 180 min, replicate 1): 5098 a/a; HPLC a/a ([2]; pH 4.5, 180 min, replicate 2): 5060 a/a; solubility at pH 4.5 compared with Enclomiphene citrate having non-needle crystals ([2]; pH 4.5 buffer, listed as Enclomiphene citrate having needle shaped crystal habit): four times higher; water uptake / moisture sorption ([3]; DVS, 25° C., listed as batch 723): 2.33 % weight and 2.3 % weight; hygroscopicity, comparison of batches 722 and 723 ([3]; DVS): identical |
